SMILES strings stand for the structures. Where two headings read alike, the source gives them in different places.

One data set is described as follows: Pharmacokinetics in dog. The data set is classed as in vivo, male Beagle dog. Particulars: Beagle dog; for pharmacokinetic properties (conclusion in words): iv and po, Tables 13 and 14; for AUC(0-t) / clearance / Vd / Cmax / Tmax / bioavailability: male, plasma; for Vd: read-out: Vss; for bioavailability: read-out: F (absolute bioavailability). As for the experimental part: Test animal: male Beagle dog, 3 dogs/administration route/compound, weight: 7-12 kg.
Solvent for intraveneous injection (iv) of Compound 31: 20% DMF (N,N-dimethylformamide)+20% PEG400 (polyethylene glycol 400)+60% sterile water for injection
Compound 31 (15.40 mg) was weighed, dissolved in solvent for intraveneous injection ultrasonically, and mixed homogeneously under vortexing, to get a clear and transparent compound solution at a theoretical concentration of 0.5 mg/mL.
Solvent for intraveneous injection (iv) of Compound 2, 28: 5% DMSO+10% PEG400+85% (28% HP-β-CD)
Compound 2 (20.72 mg) and Compound 28 (16.16 mg) were weighed, respectively, dissolved by adding solvent for intraveneous injection, mixed homogeneously under vortexing, placed in a 50° C. constant temperature water bath for 20 min, and mixed homogeneously under vortexing to get a clear and transparent compound solution at a theoretical concentration of 0.5 mg/mL.
Solvent for intragastric administration (po) of Compound 2, 28, 31: 0.1% Tween 80+2% HPC (hydroxypropyl cellulose)
Preparation: HPC (hydroxypropyl cellulose) (20 g) was weighed, and slowly added to purified water (1000 mL) under stirring. Tween 80 (1 mL) was added, and the mixture was stirred until it became clear, to get a solvent for intragastric administration. Compound 2 (41.77 mg), Compound 31 (31.35 mg) and Compound 28 (31.10 mg) were weighed, respectively, solvent for intragastric administration was added, and the resultant mixture was placed in a tissue grinder, and ground at a speed of 1000 r/min. After homogeneous dispersion, the solution for intragastric administration was obtained.
For PO group: 0.167, 0.5, 1, 2, 4, 6, 8, 24 h after administration.
Blood collection: 400 μL whole blood was collected from vein of dog fore limb at each time point, added to an anticoagulation tube containing K2EDTA, and centrifuged at 8000 r/min, 4° C. for 6 min in a centrifuge to separate the plasma; the separated plasma was stored in a refrigerator at −80° C.
By means of protein precipitation, to 30 μL plasma, 200 μL internal standard (acetonitrile solution containing 50 ng/mL CNX-2006) was added; the resultant mixture was vortexted for 10 min at 1500 r/min, and centrifuged at 12000 r/min for 5 min; to a suitable amount of supernatant, a suitable amount of water was added; the resultant mixture was mixed homogeneously under vortexing and analyzed by LC-MS/MS.

The test system of data set [1] is A431 cell (wild-type EGFR gene). The data set can be described thus: In vitro cytologic activity, Celltiter-Glo, A431 cells. It is filed as cell-based. Particulars: Homo sapiens, A-431, 72 h. The gist of the method: (§1)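 H1975 cells (2000/well) and A431 cells (3000/well) were seeded overnight at 37 °C, 5% CO2 in medium with 10% FBS, then dosed with 10-point compound dilution series from a 10 mM DMSO stock. 0.5% DMSO served as high control and 1000 nM as low control. Viability was read by CellTiter-Glo luminescence.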
Background: Cellular ATP, detected with luciferase, serves as a proxy for viable cell number.

The target in the next data set is wild-type EGFR (WT EGFR) (Homo sapiens (Human), UniProt P00533). The data set can be described thus: Mobility Shift Assay, in vitro enzyme-inhibiting activity, wild-type EGFR. The data set is classed as biochemical. To be noted: Km ATP. The gist of the method: (§2)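 Compounds in 4-fold dilutions (10 concentrations) preincubated 10 min at room temperature with enzyme, then kinase reaction at 28° C for kinase-dependent time before stop solution. Percent substrate conversion read by Caliper mobility shift; inhibition versus DMSO and blank controls, IC50 fitted.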

Another data set deals with EGFR (d746-750) (Homo sapiens (Human), UniProt P00533, DEL746-750). The data set can be described thus: Mobility Shift Assay, in vitro enzyme-inhibiting activity, EGFR (d746-750). To be noted: for IC50: Km ATP; for Selectivity WT/d746-750: ratio of IC50. The data set is classed as biochemical. The gist of the method: as §2
Data set [2] has as its system H1975 cell (EGFR-T790M/L858R double mutation). Kind of data set: In vitro cytologic activity, Celltiter-Glo, H1975 cells. It is filed as cell-based, human. To be noted: for IC50: Homo sapiens, NCI-H1975, 72 h, 72 h, Celltiter-Glo; for Selectivity (A431/H1975): ratio of IC50. In short, it runs like this: as §1

Sequence of wild-type EGFR (WT EGFR) (P00533 25-1210): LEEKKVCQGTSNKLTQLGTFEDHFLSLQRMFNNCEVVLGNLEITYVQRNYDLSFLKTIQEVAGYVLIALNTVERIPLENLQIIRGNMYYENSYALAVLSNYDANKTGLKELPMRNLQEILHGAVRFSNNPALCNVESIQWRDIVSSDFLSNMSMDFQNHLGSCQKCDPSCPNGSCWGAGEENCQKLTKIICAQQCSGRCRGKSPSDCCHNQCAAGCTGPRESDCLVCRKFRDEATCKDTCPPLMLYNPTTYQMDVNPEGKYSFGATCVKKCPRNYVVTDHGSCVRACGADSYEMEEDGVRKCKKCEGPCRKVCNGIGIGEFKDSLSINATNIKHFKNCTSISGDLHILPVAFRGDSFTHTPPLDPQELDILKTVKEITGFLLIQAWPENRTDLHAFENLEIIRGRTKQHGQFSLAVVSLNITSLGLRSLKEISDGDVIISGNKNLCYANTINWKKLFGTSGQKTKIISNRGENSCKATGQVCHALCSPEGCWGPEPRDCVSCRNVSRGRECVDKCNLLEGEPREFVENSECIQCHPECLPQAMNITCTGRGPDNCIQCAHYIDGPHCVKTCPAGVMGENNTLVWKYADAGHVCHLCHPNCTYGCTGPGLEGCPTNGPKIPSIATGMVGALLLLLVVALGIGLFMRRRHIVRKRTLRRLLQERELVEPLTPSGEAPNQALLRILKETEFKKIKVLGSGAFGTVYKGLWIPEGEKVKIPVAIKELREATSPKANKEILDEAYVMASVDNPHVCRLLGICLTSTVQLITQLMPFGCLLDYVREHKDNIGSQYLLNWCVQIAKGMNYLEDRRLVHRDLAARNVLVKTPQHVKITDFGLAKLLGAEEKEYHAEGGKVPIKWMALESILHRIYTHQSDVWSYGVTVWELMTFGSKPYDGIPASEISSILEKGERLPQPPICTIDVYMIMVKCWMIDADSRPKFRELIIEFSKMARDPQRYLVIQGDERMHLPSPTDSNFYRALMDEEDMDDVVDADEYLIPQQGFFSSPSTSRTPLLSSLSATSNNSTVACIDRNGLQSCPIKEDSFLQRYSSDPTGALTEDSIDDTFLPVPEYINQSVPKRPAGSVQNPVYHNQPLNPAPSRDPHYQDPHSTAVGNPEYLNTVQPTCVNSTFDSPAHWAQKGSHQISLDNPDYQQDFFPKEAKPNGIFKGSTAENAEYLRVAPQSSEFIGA
Sequence of EGFR (d746-750) (P00533 other isoform, or with tags, fused parts or gaps del 1-668/del 746-750 limits assumed): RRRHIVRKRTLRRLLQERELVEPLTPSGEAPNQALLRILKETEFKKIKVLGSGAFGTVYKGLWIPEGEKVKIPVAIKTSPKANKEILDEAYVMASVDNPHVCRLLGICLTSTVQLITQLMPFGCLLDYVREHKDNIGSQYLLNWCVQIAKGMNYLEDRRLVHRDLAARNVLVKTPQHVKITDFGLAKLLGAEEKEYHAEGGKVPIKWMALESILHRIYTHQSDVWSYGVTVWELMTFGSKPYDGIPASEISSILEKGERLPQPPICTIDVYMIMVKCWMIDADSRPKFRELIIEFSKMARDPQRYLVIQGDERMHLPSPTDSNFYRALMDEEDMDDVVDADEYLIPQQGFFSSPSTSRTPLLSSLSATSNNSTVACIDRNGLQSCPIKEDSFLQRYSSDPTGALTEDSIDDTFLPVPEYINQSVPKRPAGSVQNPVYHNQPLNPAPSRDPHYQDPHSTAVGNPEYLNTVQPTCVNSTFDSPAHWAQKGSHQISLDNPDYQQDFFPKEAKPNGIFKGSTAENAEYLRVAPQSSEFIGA

Turning to `C=CC(=O)Nc1cccc(Nc2nc(Nc3ccc(C4CCN(C(C)=O)CC4)cc3OC)ncc2C(F)(F)F)c1` [Compound 2, N-(3-((2-((4-(1-acetylpiperidin-4-yl)-2-methoxyphenyl)amino)-5-(trifluoromethyl)pyrimidin-4-yl)amino)phenyl)acrylamide], the “pharmacokinetic properties (conclusion in words)” value (from here on “pharmacokinetic properties”) in the data set “Pharmacokinetics in dog” is reported as “good pharmacokinetic properties”. For the same compound, in “Pharmacokinetics in dog” (iv, 0.5 mg/kg), the AUC(0-t) – broadly, exposure summed from dosing to a finite time, without extrapolation to infinity – was found to be 693 ng·h/mL; the clearance (usually a measure of how efficiently the substance is removed, as volume per time) was 11.8 mL/min/kg; the Vd is 1.36 L/kg. Besides, in the data set “Pharmacokinetics in dog” (po, 0.54 mg/kg), the AUC(0-t) worked out at 528 ng·h/mL; the highest level (Cmax) was 211 ng/mL; the Tmax (commonly the time from dosing to the highest level) was 0.5 h; the bioavailability – broadly, the share of a dose that reaches the circulation, judged against a reference dose that is usually intravenous – came to 70%. 1.85 µM corresponded to half-maximal inhibition in data set [1] (Table 9) (IC50). The IC50 (as a rule, the point on the concentration scale where inhibition reaches its midpoint) at wild-type EGFR (WT EGFR) (Table 1) was 0.552 µM. Further, the IC50 on wild-type EGFR (WT EGFR) (Table 5) came to 0.344 µM. Also, on EGFR (d746-750) (Table 5), the IC50 is 0.0242 µM and the “Selectivity WT/d746-750” value is 14.2. In data set [2] (Table 9), it took 0.104 µM to reach half-maximal inhibition (IC50) and the “Selectivity (A431/H1975)” value was found to be 17.7.
As for `C=CC(=O)Nc1cccc(Nc2nc(Nc3ccc(C4CCN(S(C)(=O)=O)CC4)cc3OC)ncc2C(F)(F)F)c1` [Compound 27, N-(3-((2-((2-methoxy-4-(1-(methylsulfonyl)piperidin-4-yl)phenyl)amino)-5-(trifluoromethyl)pyrimidin-4-yl)amino)phenyl)acrylamide], the IC50 in data set [1] (Table 10, unit inferred) was determined as 2.79 µM; on wild-type EGFR (WT EGFR) (Table 4, unit inferred), 0.871 µM; at EGFR (d746-750) (Table 8), 0.036 µM; in data set [2] (Table 10, unit inferred), 0.278 µM. Besides, the “Selectivity (A431/H1975)” value in data set [2] (Table 10) came to 10.0.
Take `C=CC(=O)Nc1cccc(Nc2nc(Nc3ccc(N4CCC(N5CCOCC5)CC4)cc3OC)ncc2C(F)(F)F)c1` [Compound 28, N-(3-((2-((2-methoxy-4-(4-morpholinopiperidin-1-yl)phenyl)amino)-5-(trifluoromethyl)pyrimidin-4-yl)amino)phenyl)acrylamide]: the “pharmacokinetic properties” value in the data set “Pharmacokinetics in dog” was “good pharmacokinetic properties”. Besides, in the data set “Pharmacokinetics in dog” (iv, 0.5 mg/kg), the AUC(0-t) is 1580 ng·h/mL, the clearance is 5.5 mL/min/kg and the Vd was 1.1 L/kg. Moreover, in the data set “Pharmacokinetics in dog” (po, 1.28 mg/kg), the AUC(0-t) was determined as 1820 ng·h/mL, the Cmax (usually the peak of the concentration-time curve) was 523 ng/mL, the time to peak (Tmax) worked out at 1 h and the bioavailability came out at 46%. This compound also yielded an IC50 in data set [1] (Table 10, unit inferred) of 0.703 µM. Further, the IC50 on wild-type EGFR (WT EGFR) (Table 4, unit inferred) stood at 0.073 µM. At EGFR (d746-750) (Table 8), the IC50 turned out to be 0.0055 µM. In data set [2] (Table 10, unit inferred), this compound gave an IC50 of 0.0752 µM. In data set [2] (Table 10), the “Selectivity (A431/H1975)” value amounted to 9.4.
Consider `C=CC(=O)Nc1cccc(Nc2nc(Nc3ccc(N4CC5(CN(C(C)=O)C5)C4)cc3OC)ncc2C(F)(F)F)c1` [Compound 31, N-(3-((2-((4-(6-acetyl-2,6-diazaspiro[3.3]heptan-2-yl)-2-methoxyphenyl)amino)-5-(trifluoromethyl)pyrimidin-4-yl)amino)phenyl)acrylamide], for which, in “Pharmacokinetics in dog”, the “pharmacokinetic properties” value is listed as “good pharmacokinetic properties”. For the same compound, in “Pharmacokinetics in dog” (iv, 0.5 mg/kg), the AUC(0-t) turned out to be 1270 ng·h/mL, the clearance is 6.67 mL/min/kg and the Vd came out at 0.38 L/kg. In the data set “Pharmacokinetics in dog” (po, 1 mg/kg), the AUC(0-t) is 545 ng·h/mL, the Cmax stood at 261 ng/mL, the Tmax is 1 h and the bioavailability is 23%. The IC50 in data set [1] (Table 10, unit inferred) came out at 2.72 µM. Also, the IC50 at wild-type EGFR (WT EGFR) (Table 7) turned out to be 0.21 µM. Also, on EGFR (d746-750) (Table 7), the IC50 worked out at 0.0286 µM and the “Selectivity WT/d746-750” value is reported as 7.4. This compound returned an IC50 in data set [2] (Table 10, unit inferred) of 0.278 µM. Besides, in data set [2] (Table 10), the “Selectivity (A431/H1975)” value is 9.8.

The values above are taken from US10300058B2, “Tyrosine kinase inhibitor and uses thereof” (Xuanzhu Pharma Co., Ltd., priority 2014, dated 2019).
